Measurements published in US20090098115A1, “Cell lines and animal models of HER2 expressing tumors” (priority 2006, published 2009).

Columns and labels:
BT-474 cells = assay: In vitro cell proliferation assay (Cell Titer-Glo), BT-474; assay type: cell-based, human; conditions: BT-474, 0.0001 ug/ml to 10 ug/ml, 72 h (FIGS. 7A, 8A)
Experimental: (§1) BT-474 and BT-474EE1 cells were plated in 96-well microtiter plates and incubated overnight at 37° in a humidified atmosphere of 5% CO2. […] After incubation for 72 h, Cell Titer-Glo reagent (Promega, Madison, Wis.) was added to the wells, and after a 10-min incubation at room temperature, the luminescent signal was recorded.

BT-474EEI cells = assay: In vitro cell proliferation assay (Cell Titer-Glo), BT-474EEI; assay type: cell-based, human; conditions: 0.0001 ug/ml to 10 ug/ml, 72 h (FIGS. 7B, 8B)
Experimental: as §1

## C#Cc1cccc(Nc2ncnc3cc(OCCOC)c(OCCOC)cc23)c1 [Tarceva, Erlotinib]
BT-474 cells
  cell proliferation: decreased with high doses
BT-474EEI cells
  cell proliferation: reduced at high concentrations
